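Values below derive from 48-hour exposures of cells grown in 96-well plates, with endpoints linearly interpolated between the two concentrations bracketing the appropriate inhibition level. At the TGI there is no net growth.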
Assays:
Assay in all cases: NCI anticancer screen, dose series, 48 h
[1] = system: A549 NSCLC
[2] = system: CAKI-1 renal
[3] = system: DU-145 prostate
[4] = system: HCC-2998 colon
[5] = system: HL-60(TB) leukemia
[6] = system: HOP-62 NSCLC
[7] = system: HOP-92 NSCLC
[8] = system: HS 578T breast
[9] = system: M14 melanoma
[10] = system: OVCAR-3 ovarian
[11] = system: RXF 393 renal
[12] = system: SK-MEL-28 melanoma
[13] = system: SN12C renal
[14] = system: SNB-75 CNS
[15] = system: SW-620 colon
[16] = system: T-47D breast
[17] = system: UACC-257 melanoma
[18] = system: LOX IMVI melanoma
[19] = system: MALME-3M melanoma
[20] = system: MDA-N

Measured: TGI

COc1ccc2c(c1)C(=O)OCCC2
not listed: [18] | [19] | [20]
> 100 µM: all other assays above

COc1ccc(-c2csc(Cc3nc4ccccc4c(=O)n3-c3ccc(Cl)cc3)n2)cc1
59.5 µM: [12]
59 µM: [20]
65.1 µM: [9]
not listed: [7] | [13] | [16]
> 100 µM: all other assays above

COc1ccc(NC(=O)N(C)CC2(O)CCC(C(C)(C)C)CC2)cc1 (stereo unspecified)
10.3 µM: [2]
90.4 µM: [7]
81.4 µM: [10]
74.7 µM: [18]
92.9 µM: [11]
99.3 µM: [19]
not listed: [4] | [16]
> 100 µM: all other assays above

COC(=O)[C@H](Cc1c[nH]c2ccccc12)NC(=O)c1ccc(CNC(=O)/C(C)=C/c2ccccc2)cc1
7.78 µM: [11]
36.7 µM: [12]
25.6 µM: [19]
40.3 µM: [20]
33.5 µM: [17]
30.1 µM: [9]
27.7 µM: [16]
32.2 µM: [14]
73 µM: [4]
34.3 µM: [7]
not listed: [5] | [8]
> 100 µM: all other assays above

CCOC(=O)c1c(NC(=O)OC)c(C#N)c2n1CCCCC2
43.9 µM: [3]
not listed: [1] | [10] | [13] | [19] | [20]
> 100 µM: all other assays above

CCC1CCc2c(c(=O)oc3c2cc(OC)c2cccc(OC)c23)C1 (stereo unspecified)
> 100 µM: [1] | [2] | [4] | [6] | [9] | [19] | [12] | [13] | [14] | [17]
89.9 µM: [11]
69.6 µM: [5]

COc1ccc2c(c1)nc1n2C(c2c(Cl)cccc2Cl)SC1 (stereo unspecified)
> 53.8 µM: [15]
> 93 µM: [10]
> 72.3 µM: [16]
> 43.7 µM: [9]
> 70.3 µM: [11]
> 71 µM: [6]
> 22.7 µM: [5]
49.4 µM: [8]
> 86.8 µM: [4]
14.5 µM: [19]
> 75.1 µM: [14]
not listed: [20]
> 100 µM: all other assays above

N#Cc1[nH]c(=S)[nH]c1N
not listed: [9] | [16] | [20]
> 100 µM: all other assays above

Nc1nc(NCC2(CO)CC2)cc(=O)[nH]1
not listed: [20]
> 100 µM: all other assays above

CC(C)CC(NC(=O)C(CI)Cc1ccccc1)C(=O)Nc1ccccc1 (stereo unspecified)
not listed: [6] | [8] | [16]
> 100 µM: all other assays above

COc1ccc(-c2nc(-c3cc4c(ccc5ccccc54)oc3=O)cs2)cc1
not listed: [10] | [19] | [20]
> 100 µM: all other assays above

CC(=O)O[C@H]1CCC2[C@@H]3CCC4Nc5oncc5C[C@]4(C)C3CC[C@@]21C (stereo partly specified)
4.58 µM: [5]
not listed: [8] | [14]
> 10 µM: all other assays above

Cc1nn(C(=O)Cc2ccccc2)c2c1C(c1ccc(Cl)cc1)SC(N)=N2 (stereo unspecified)
96.9 µM: [14]
not listed: [7] | [10] | [11] | [20]
> 100 µM: all other assays above

CC1(C)CC(=O)C(C=NC(=O)c2ccncc2)=C(O)C1
not listed: [16] | [19]
> 100 µM: all other assays above

O=C(O)c1nc2ccc(C(F)(F)F)cc2nc1NCc1ccc(F)cc1
45.3 µM: [7]
76.9 µM: [20]
76.2 µM: [17]
65.6 µM: [4]
46.1 µM: [6]
94.9 µM: [14]
61.7 µM: [9]
36.5 µM: [18]
33.2 µM: [10]
42.2 µM: [1]
35.4 µM: [13]
not listed: [5] | [8] | [19]
> 100 µM: all other assays above

Cn1c(=O)oc2cc(C(O)CN3CCN(Cc4ccccn4)CC3)c(Cl)cc21 (stereo unspecified)
not listed: [8]
> 100 µM: all other assays above

COC(=O)[C@]12CCC(C)(C)C[C@H]1[C@H]1C(=O)C=C3[C@@]4(C)C=C(C#N)C(=O)C(C)(C)[C@@H]4CC[C@@]3(C)[C@]1(C)CC2
0.0795 µM: [17]
2.14 µM: [8]
0.0615 µM: [10]
0.159 µM: [16]
0.421 µM: [5]
0.0876 µM: [9]
1.29 µM: [1]
0.0547 µM: [6]
> 100 µM: [11]
0.0305 µM: [4]
0.946 µM: [15]
0.187 µM: [13]
0.295 µM: [3]
0.078 µM: [2]
0.143 µM: [19]
3.62 µM: [14]
4.03 µM: [7]

Cc1c(O)c(OC2OC(CO)C(O)C(O)C2O)cc2c1CC[C@@H]1C2(C)C(=O)C[C@]2(C)[C@@H]([C@@](C)(O)C(=O)CCC(C)(C)O)[C@H](O)C[C@@]12C (stereo partly specified)
not listed: [5] | [8] | [18]
> 100 µM: all other assays above

Cc1ccc(-c2n[nH]c(=O)n2/N=C\c2ccc([N+](=O)[O-])cc2)cc1
97.6 µM: [5]
not listed: [20]
> 100 µM: all other assays above

c1ccc(NN=C(c2ccccn2)c2ccccn2)nc1
> 21 µM: [1]
26.1 µM: [19]
not listed: [5] | [6] | [9] | [16]
> 100 µM: all other assays above

O=C1/C(=C/c2cccc(Br)c2)Cc2ccccc21
not listed: [4] | [11] | [16]
> 100 µM: all other assays above

N#CC1=C(Nc2ccccc2)SC=C(c2ccccc2)NC1=NCc1ccccc1
not listed: [4] | [5] | [7] | [8] | [14] | [17] | [18]
> 100 µM: all other assays above

CCC(=O)O[C@H]1CC[C@H]2[C@@H]3CCC4=C/C(=N/OC(=O)c5cccc6c(=O)c7ccccc7[nH]c56)CC[C@]4(C)[C@H]3CC[C@]12C
45.4 µM: [11]
41.2 µM: [4]
51.4 µM: [18]
74.5 µM: [7]
77.7 µM: [9]
38.4 µM: [10]
not listed: [2] | [3] | [5] | [19]
> 100 µM: all other assays above

C/C(=N/NC(=S)Nc1ccc(Cl)cc1)c1cccc(/C(C)=N\NC(=S)Nc2ccc(Cl)cc2)n1
47.1 µM: [10]
8.53 µM: [9]
65.5 µM: [3]
27.1 µM: [11]
53.2 µM: [1]
46.8 µM: [17]
26.8 µM: [18]
45.6 µM: [12]
36 µM: [19]
39.4 µM: [2]
45 µM: [6]
not listed: [5] | [8]
> 100 µM: all other assays above

CN(C)CCNC(=O)c1ccc2nc3c(nc2c1)C(=O)c1ccccc1-3
33.6 µM: [20]
73.4 µM: [18]
82.3 µM: [19]
38.2 µM: [5]
not listed: [16]
> 100 µM: all other assays above

CC1=CCC(C)=Nc2nc3ccccc3n21
not listed: [4] | [14] | [20]
> 100 µM: all other assays above

COc1ccc(-n2cnn3c(=O)c4cn[nH]c4nc23)cc1
not listed: [2] | [6] | [11] | [12] | [15] | [16] | [20]
> 10 µM: all other assays above
